Data from publication PMC8298375 (Naunyn-Schmiedeberg's Archives of Pharmacology, 2021).

Key:
Format in all cases: in vivo, Wistar rats
[1] = system: scopolamine-induced amnesia rats; experiment: Locomotor activity (photoactometer), scopolamine-induced amnesia; settings: scopolamine model, Mean ± SEM, photo beam counts for 5 min
Protocol: (§1) In the acute model, the rats were trained for Morris water maze (MWM) and passive avoidance test (PAT) tasks in the first 4 days. On the 5th day, 30 min after scopolamine administration, respective treatments were given to all the groups. Fifteen minutes thereafter, the test trials were conducted in MWM and PAT.
Locomotor activity was assessed in animals using a digital photoactometer (INCO, India) which contains a cage that is 30-cm long and 30-cm deep with a wire mesh at the bottom. The apparatus was placed in a dark, light, and sound attenuated testing room. Before the locomotor task, animals were placed individually in the activity meter for 3 min for habituation. Then, the ambulatory movements were recorded for 5 min and expressed in terms of total photo beam counts for 5 min per animal.

[2] = system: ICV colchicine-induced dementia rats; experiment: Locomotor activity (photoactometer), colchicine-induced dementia; settings: colchicine model, Mean ± SEM, photo beam counts for 5 min
Protocol: (§2) In the chronic model, the rats were trained for MWM and PAT tasks for the first 4 days followed by intracerebroventricular (i.c.v.) administration of colchicine on day 6. After establishing dementia on day 10 of the colchicine administration, the drug treatment was initiated from day 11 to 24. The effects of different drug treatments on dementia were assessed on days 14 and 21. On these particular days, the swim test was performed 15 min after the administration of different treatments and escape latencies; residence time and peripheral swim time were recorded (Nampoothiri [2017]). The retention trials for PAT on day 17 and 23 were performed on days 17 and 23, 15 min after the administration of the drug.
On the 6th day, surgery was performed as described (Bokare et al. [2018]). Rat was anesthetized with sodium pentobarbital (45 mg/kg, i.p.) and positioned in stereotaxic apparatus. The head was positioned in a frame, and a midline sagittal incision was made in the scalp. […]
Locomotor activity was assessed in animals using a digital photoactometer (INCO, India) which contains a cage that is 30-cm long and 30-cm deep with a wire mesh at the bottom. […] Then, the ambulatory movements were recorded for 5 min and expressed in terms of total photo beam counts for 5 min per animal.

[3] = system: scopolamine-induced amnesia rats; experiment: Morris water maze test, scopolamine-induced amnesia (acute model); settings: scopolamine 1 mg/kg i.p., Mean ± SEM; for Escape latency: test 15 min after treatment
Protocol: as §1
A modified Morris water maze test was used (Nampoothiri [2017]). The pool was positioned in the middle of a dimly lit testing room with distant visual clues that could be used by rats for spatial orientation. The maze consisted of a circular water pool (140 × 45 cm) divided into four equally sized quadrants (NE, SE, SW, and NW) by two imaginary diagonal lines running across the center of the pool. The pool was filled with water maintained at a temperature of 23 ± 2 °C. In the NE quadrant (target quadrant) equidistant from the center and edge of the pool, a platform of 25-cm height and 10-cm diameter was invisibly placed submerged 1 cm below the water surface. Rats were gently placed in each quadrant facing the wall and trained to locate the hidden black platform, and the trial was terminated when the rat reached the platform or after 60 s. Accordingly, rats were subjected to one session of four trials per day for four consecutive days. All rats were left on the platform for 30 s and then removed and towel dried. Inter-trial interval was kept a constant 180 s throughout the study. In the probe trial, platform was removed, and rats were allowed to swim for a 60-s trial period. Data was collected in the form of escape latencies to find the platform; percent of time spent over the target quadrant.

[4] = system: ICV colchicine-induced dementia rats; experiment: Passive avoidance test, ICV colchicine-induced dementia (chronic model); settings: for Retention test, Latency time, 1st / Retention test, No. of crossings, 1st / Retention test, Time spent in darker chamber, 1st: 1st retention test, before colchicine administration; for Retention test, Latency time, 2nd / Retention test, No. of crossings, 2nd / Retention test, Time spent in darker chamber, 2nd: 2nd retention test, day 17; for Retention test, No. of crossings, 3rd / Retention test, Latency time, 3rd / Retention test, Time spent in darker chamber, 3rd: 3rd retention test, day 23; for Acquisition test, 2nd day: colchicine model
Protocol: as §2
On the 6th day, surgery was performed as described (Bokare et al. [2018]). Rat was anesthetized with sodium pentobarbital (45 mg/kg, i.p.) and positioned in stereotaxic apparatus. The head was positioned in a frame, and a midline sagittal incision was made in the scalp. Two holes were drilled through the skull at coordinates (0.8 mm posterior to bregma, 1.8 mm lateral to the sagittal suture, and 3.6 mm beneath the cortical surface) to place the injection cannula. Rats were intracerebroventricularly infused with either artificial cerebrospinal fluid (ACSF; in mM: 147 NaCl, 2.9 KCl, 1.6 MgCl2, 1.7 CaCl2, and 2.2 dextrose) or 15 µg of colchicine in 5 µL ACSF using a Hamilton microsyringe positioned in the injection cannula. To promote back diffusion, the microsyringe was left in place for 2 min following injection. The scalp was then closed with a suture. After surgery, all animals received gentamicin (5 mg/kg, i.p.) to prevent sepsis. Special care was taken during the postoperative period to provide food and water inside the cage of the rat. In sham-operated rats, surgery was identical except for injection of the solution.
The passive avoidance apparatus consists of a larger illuminated compartment and a smaller dark compartment. Each consists of a square box, with a floor grid of 50 × 50 cm and wooden walls of 35-cm height in larger compartment. Larger box was illuminated by 15 W Philips CFL lamp. A smaller dark compartment of 15 × 15 cm with an electrified floor is connected to a constant current stimulator. An opening 6 × 6 cm in between the two compartments was closed using a transparent plexiglass sliding door. The test procedure was carried out in three phases, exploration, learning, and retention (Praveenkumar [2019]).
First day, the animal was placed in the center of the illuminated larger compartment facing away from the entrance to the small darker compartment and allowed to explore the apparatus, i.e., both compartments for 3 min. Total time spent in the larger and smaller compartments and the number of crossings (from larger to smaller compartments and vice versa; a measure of exploratory behavior) were noted. On the second day, animal was placed in the illuminated larger compartment facing away from the entrance to the darker compartment. Once the animal entered the darker compartment, the entrance to the larger compartment was closed, and three strong electric foot shocks (50 Hz, 0.5 mA, 2 s) with 10-s intervals were applied. On the third day, rats were placed in the illuminated larger compartment and allowed to explore both the compartments for 3 min. The parameters assessed are latency time to enter into darker compartment, time spent in the darker and brighter compartments, and the number of crossings between the compartments.

CCN(C)C(=O)Oc1cccc([C@H](C)N(C)C)c1 [ORSM, rivastigmine]
Score on actophotometer ([1]; listed as SCP + ORSM): 238.16 ± 20.88 | Score on actophotometer ([2]; listed as COL + ORSM): 240.00 ± 19.54 | Escape latency ([3]; listed as SCP + ORSM): 3.89 ± 0.44 s | Retention test, Latency time, 1st ([4]; listed as COL + ORSM): 127.8 ± 21.13 s | Retention test, No. of crossings, 1st ([4]; listed as COL + ORSM): 1.83±0.54 | Retention test, Time spent in darker chamber, 1st ([4]; listed as COL + ORSM): 38.5 ± 16.47 s | Retention test, Latency time, 2nd ([4]; listed as COL + ORSM): 90.55 ± 22.83 s | Retention test, No. of crossings, 2nd ([4]; listed as COL + ORSM): 3.00±0.63 | Retention test, Time spent in darker chamber, 2nd ([4]; listed as COL + ORSM): 68 ± 23.51 s | Retention test, No. of crossings, 3rd [4]: 3.17±0.48 | Retention test, Latency time, 3rd ([4]; listed as COL + ORSM): 48.83 ± 8.28 s | Retention test, Time spent in darker chamber, 3rd ([4]; listed as COL + ORSM): 81.33 ± 10.56 s | Acquisition test, 2nd day ([4]; listed as COL + ORSM): 8.91 ± 2.049

CCN(C)C(=O)Oc1cccc([C@H](C)N(C)C)c1 [INRSM, rivastigmine]
Score on actophotometer ([1]; listed as SCP + INRSM): 296.50 ± 17.68 | Score on actophotometer ([2]; listed as COL + INRSM): 265.66 ± 17.95 | Peripheral swim time ([3]; listed as SCP + INRSM): 34.22 ± 0.74 s | Escape latency ([3]; listed as SCP + INRSM): 3.11 ± 0.36 s | Retention test, Latency time, 1st ([4]; listed as COL + INRSM): 122.3 ± 13.32 s | Retention test, No. of crossings, 1st ([4]; listed as COL + INRSM): 2.67±0.56 | Retention test, Time spent in darker chamber, 1st ([4]; listed as COL + INRSM): 49.5 ± 12.13 s | Retention test, Latency time, 2nd ([4]; listed as COL + INRSM): 101.8 ± 10.46 s | Retention test, No. of crossings, 2nd ([4]; listed as COL + INRSM): 3.50±0.56 | Retention test, Time spent in darker chamber, 2nd ([4]; listed as COL + INRSM): 58.67 ± 10.25 s | Retention test, No. of crossings, 3rd [4]: 3.17±0.48 | Retention test, Latency time, 3rd ([4]; listed as COL + INRSM): 77.17 ± 11.18 s | Retention test, Time spent in darker chamber, 3rd ([4]; listed as COL + INRSM): 67.17 ± 12.43 s | Acquisition test, 2nd day ([4]; listed as COL + INRSM): 11.07 ± 2.195
